The text below walks through data of article PMC10150354, “Linearization of the Brevicidine and Laterocidine Lipopeptides Yields Analogues That Retain Full Antibacterial Activity” (Journal of Medicinal Chemistry, 2023).

One test concerns P. aeruginosa PAO1. In kind it is cell-based, Pseudomonas aeruginosa. Particulars: microbroth dilution per CLSI, MHB, 18 h at 37 °C, visual inspection, three technical replicates. The gist of the method: (§1)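 MIC taken as the lowest concentration with no visible growth after 18 h, 37 °C, shaking, three technical replicates. Peptides were serially diluted in MHB and received cells from TSB cultures at OD600 ~0.5, diluted to 2 × 10^5 CFU/mL (kanamycin selection for the mcr-1 E. coli), following CLSI guidelines.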

For a further test, the system named is A. baumannii ATCC 17961. Type of test: cell-based, Acinetobacter baumannii. Particulars: microbroth dilution per CLSI, MHB, 18 h at 37 °C, visual inspection, three technical replicates. The procedure, abridged: as §1
(In general: In broth dilution the organism is exposed to a series of concentrations in liquid medium.)

The test system of another test is K. pneumoniae ATCC 13883. Type of test: cell-based, Klebsiella pneumoniae. Particulars: microbroth dilution per CLSI, MHB, 18 h at 37 °C, visual inspection, three technical replicates. The procedure, abridged:
as §1

The subject of a further test is S. aureus USA300. In kind it is cell-based, Staphylococcus aureus. Particulars: microbroth dilution per CLSI, MHB, 18 h at 37 °C, visual inspection, three technical replicates. The gist of the method: as §1
The test system of the next test is E. coli (MCR-1). In kind it is cell-based, Escherichia coli. Particulars: microbroth dilution per CLSI, MHB, 18 h at 37 °C, visual inspection, three technical replicates, E. coli 25922 carrying mcr-1. The procedure, abridged: as §1
Another test deals with E. coli ATCC 25922. Type of test: cell-based, Escherichia coli. Particulars: MIC, microbroth dilution per CLSI, MHB, 18 h at 37 °C, visual inspection, three technical replicates. The procedure, abridged:
as §1

Where a SMILES comes first, the peptide text is derived from it. Bridges are numbered along the chain shown (N, C = ends). [ ]: non-standard residue; d: D form. The star is where a group is joined. ξ: configuration not given here. Octanoyl(7-Me) = CC(C)CCCCCC(=O)*; Hexanoyl(4ξ-Me) = CCC(C)CCC(=O)*; dOrn = NCCC[C@@H](N)C(=O)O; Orn = NCCC[C@H](N)C(=O)O

In the case of `CC[C@H](C)[C@H](NC(=O)[C@@H](NC(=O)[C@H](Cc1c[nH]c2ccccc12)NC(=O)[C@@H](CCCN)NC(=O)CNC(=O)[C@H](CCCN)NC(=O)[C@@H](CCCN)NC(=O)[C@@H](Cc1c[nH]c2ccccc12)NC(=O)[C@@H](Cc1ccc(O)cc1)NC(=O)[C@@H](CO)NC(=O)CCCCCC(C)C)[C@@H](C)O)C(=O)N[C@@H](CC(N)=O)C(=O)NCC(=O)NCC(=O)O` [LL-OH (4)] ({Octanoyl(7-Me)}-[dS][dY][dW][dOrn][Orn]G[dOrn]WTINGG-OH), the “Antibacterial activity (MIC) P. aeruginosa PAO1” value with P. aeruginosa PAO1 worked out at 8 mg/L. Moreover, the “Antibacterial activity (MIC) A. baumannii ATCC 17961” value with A. baumannii ATCC 17961 turned out to be 16 mg/L. The “Antibacterial activity (MIC) K. pneumoniae ATCC 13883” value in the test on K. pneumoniae ATCC 13883 was 8 to 16 mg/L. Also, the “Antibacterial activity (MIC) S. aureus USA300” value in the test on S. aureus USA300 is above 32 mg/L. Besides, in the test on E. coli (MCR-1), the “Antibacterial activity (MIC) E. coli (MCR-1)” value was 16 mg/L. Further, the “Antibacterial activity (MIC) E. coli ATCC 25922” value with E. coli ATCC 25922 came out at 8 mg/L.
Take `CC[C@H](C)[C@@H]1NC(=O)[C@@H](NC(=O)[C@H](Cc2c[nH]c3ccccc23)NC(=O)[C@@H](CCCN)NC(=O)CNC(=O)[C@H](CCCN)NC(=O)[C@@H](CCCN)NC(=O)[C@@H](Cc2c[nH]c3ccccc23)NC(=O)[C@@H](Cc2ccc(O)cc2)NC(=O)[C@@H](CO)NC(=O)CCCCCC(C)C)[C@@H](C)OC(=O)CNC(=O)CNC(=O)[C@H](CC(N)=O)NC1=O` [Lat (2), laterocidine] ({Octanoyl(7-Me)}-[dS][dY][dW][dOrn][Orn]G[dOrn]WTINGG; ester 9-C): the “Antibacterial activity (MIC) P. aeruginosa PAO1” value with P. aeruginosa PAO1 is 4 mg/L. Besides, the “Antibacterial activity (MIC) A. baumannii ATCC 17961” value in the test with A. baumannii ATCC 17961 came to 2 mg/L. Besides, the “Antibacterial activity (MIC) K. pneumoniae ATCC 13883” value in the test with K. pneumoniae ATCC 13883 lay in the range of 2 to 4 mg/L. Further, the “Antibacterial activity (MIC) S. aureus USA300” value with S. aureus USA300 was above 32 mg/L. Also, the “Antibacterial activity (MIC) E. coli (MCR-1)” value in the test with E. coli (MCR-1) is 2 mg/L. Also, the “Antibacterial activity (MIC) E. coli ATCC 25922” value with E. coli ATCC 25922 came out at 2 mg/L.
With `CCC(C)CCC(=O)N[C@H](CC(N)=O)C(=O)N[C@H](Cc1ccc(O)cc1)C(=O)N[C@H](Cc1c[nH]c2ccccc12)C(=O)N[C@H](CCCN)C(=O)N[C@@H](CCCN)C(=O)NCC(=O)N[C@H](CCCN)C(=O)N[C@@H](Cc1c[nH]c2ccccc12)C(N)=O` (stereo partly drawn) [Δ9–12LB-NH2 (15)] ({Hexanoyl(4ξ-Me)}-[dN][dY][dW][dOrn][Orn]G[dOrn]W-NH2), the “Antibacterial activity (MIC) P. aeruginosa PAO1” value in the test with P. aeruginosa PAO1 was above 32 mg/L. Further, the “Antibacterial activity (MIC) A. baumannii ATCC 17961” value in the test with A. baumannii ATCC 17961 is above 32 mg/L. The “Antibacterial activity (MIC) K. pneumoniae ATCC 13883” value in the test on K. pneumoniae ATCC 13883 is above 32 mg/L. In the test with S. aureus USA300, the “Antibacterial activity (MIC) S. aureus USA300” value was above 32 mg/L. The “Antibacterial activity (MIC) E. coli (MCR-1)” value in the test with E. coli (MCR-1) was above 32 mg/L. In addition, the “Antibacterial activity (MIC) E. coli ATCC 25922” value in the test with E. coli ATCC 25922 is above 32 mg/L.
Turning to `CC(C)CCCCCC(=O)N[C@H](CO)C(=O)N[C@H](Cc1ccc(O)cc1)C(=O)N[C@H](Cc1c[nH]c2ccccc12)C(=O)N[C@H](CCCN)C(=O)N[C@@H](CCCN)C(=O)NCC(=O)N[C@H](CCCN)C(=O)N[C@@H](Cc1c[nH]c2ccccc12)C(N)=O` [Δ9–13LL-NH2 (16)] ({Octanoyl(7-Me)}-[dS][dY][dW][dOrn][Orn]G[dOrn]W-NH2), the “Antibacterial activity (MIC) P. aeruginosa PAO1” value in the test with P. aeruginosa PAO1 was above 32 mg/L. Besides, the “Antibacterial activity (MIC) A. baumannii ATCC 17961” value with A. baumannii ATCC 17961 was found to be 32 mg/L. Moreover, the “Antibacterial activity (MIC) K. pneumoniae ATCC 13883” value in the test on K. pneumoniae ATCC 13883 is above 32 mg/L. In the test with S. aureus USA300, the “Antibacterial activity (MIC) S. aureus USA300” value was above 32 mg/L. Besides, in the test on E. coli (MCR-1), the “Antibacterial activity (MIC) E. coli (MCR-1)” value is above 32 mg/L. Moreover, the “Antibacterial activity (MIC) E. coli ATCC 25922” value with E. coli ATCC 25922 is above 32 mg/L.
Take `CCC(C)CCC(=O)N[C@H](CC(N)=O)C(=O)N[C@H](Cc1ccc(O)cc1)C(=O)N[C@H](Cc1c[nH]c2ccccc12)C(=O)N[C@H](CCCN)C(=O)N[C@@H](CCCN)C(=O)NCC(=O)N[C@H](CCCN)C(=O)N[C@@H](Cc1c[nH]c2ccccc12)C(=O)N[C@H](C(N)=O)[C@@H](C)O` (stereo partly drawn) [Δ10–12LB-NH2 (13)] ({Hexanoyl(4ξ-Me)}-[dN][dY][dW][dOrn][Orn]G[dOrn]WT-NH2): the “Antibacterial activity (MIC) P. aeruginosa PAO1” value in the test on P. aeruginosa PAO1 is above 32 mg/L. In addition, in the test with A. baumannii ATCC 17961, the “Antibacterial activity (MIC) A. baumannii ATCC 17961” value is above 32 mg/L. Also, the “Antibacterial activity (MIC) K. pneumoniae ATCC 13883” value with K. pneumoniae ATCC 13883 is above 32 mg/L. Moreover, the “Antibacterial activity (MIC) S. aureus USA300” value in the test with S. aureus USA300 was above 32 mg/L. In addition, in the test with E. coli (MCR-1), the “Antibacterial activity (MIC) E. coli (MCR-1)” value was above 32 mg/L. Moreover, the “Antibacterial activity (MIC) E. coli ATCC 25922” value in the test with E. coli ATCC 25922 was above 32 mg/L.
